The target of experiment [1] is T1, TDO in A172 cells (Homo sapiens, UniProt P48775).
T1 construct: endogenous in cells; host or cells: A172 cells
In words: TDO cell-based assay, kynurenine production in A172 cells. Particulars: A 172; final concentration of the compound 10 μM; rate relative to culture without compound. Summed up: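 A172 cells were preincubated with compound for 1 h, then given L-tryptophan (final 524 μM) for 24 h at 37 °C. Kynurenine was read at 460 nm after p-dimethylbenzaldehyde/TCA reagent, background-subtracted, and expressed as % of no-compound production.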

Experiment [2] deals with T2, IDO in A431 cells (Homo sapiens, UniProt P14902).
T2 construct: endogenous in cells; host or cells: A431 cells, IFN-γ stimulated
In words: IDO cell-based assay, kynurenine production in IFN-γ stimulated A431 cells. The settings on record: A-431, 24 h; final concentration of the compound 10 μM; rate relative to culture without compound. Summed up: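 A431 cells were cultured 24 h, then preincubated 1 h with compound in medium containing 178 μM L-tryptophan, and stimulated with IFN-γ (diluted to 100 ng/mL before addition) for 24 h. Kynurenine was measured by p-dimethylbenzaldehyde absorbance at 460 nm, background-subtracted, and expressed as % production versus no-compound control.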

Experiment [3] deals with rhTDO (recombinant human TDO) (Homo sapiens, UniProt P48775). Briefly: Enzyme assay using rhTDO (rate of kynurenine production). The settings on record: 2 h; final concentration of the compound 10 μM; rate relative to reaction without compound; read-out: rhTDO-mediated kynurenine production. In kind it is biochemical. In a few lines:
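Kynurenine output, as percent of untreated control after background subtraction, read at 490 nm with p-dimethylbenzaldehyde following TCA quench and 15 min heating at 50 °C. Reaction: rhTDO with compound, 10 min preincubation then 120 min at 37 °C, started by 20 mM tryptophan stock, in phosphate/ascorbate/methylene blue/catalase.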

Experiment [4] addresses rhIDO (recombinant human IDO) (Homo sapiens, UniProt P14902). Briefly: Enzyme assay using rhIDO (rate of kynurenine production). The format is biochemical. The settings on record: 2 h; final concentration of the compound 10 μM; rate relative to reaction without compound; read-out: rhIDO-mediated kynurenine production. Summed up: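 rhIDO preincubated with compound 10 min at 37 °C in phosphate buffer with ascorbate, methylene blue and catalase; started with 2 mM tryptophan solution (stock) and run 120 min at 37 °C. Stopped with TCA and heated to convert N-formylkynurenine; kynurenine read at 490 nm after p-dimethylbenzaldehyde, background-subtracted, as % of no-compound control.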

SMILES strings stand for the structures. Where a name gives a salt, the structure may show the parent alone.

T1 sequence (P48775 whole entry): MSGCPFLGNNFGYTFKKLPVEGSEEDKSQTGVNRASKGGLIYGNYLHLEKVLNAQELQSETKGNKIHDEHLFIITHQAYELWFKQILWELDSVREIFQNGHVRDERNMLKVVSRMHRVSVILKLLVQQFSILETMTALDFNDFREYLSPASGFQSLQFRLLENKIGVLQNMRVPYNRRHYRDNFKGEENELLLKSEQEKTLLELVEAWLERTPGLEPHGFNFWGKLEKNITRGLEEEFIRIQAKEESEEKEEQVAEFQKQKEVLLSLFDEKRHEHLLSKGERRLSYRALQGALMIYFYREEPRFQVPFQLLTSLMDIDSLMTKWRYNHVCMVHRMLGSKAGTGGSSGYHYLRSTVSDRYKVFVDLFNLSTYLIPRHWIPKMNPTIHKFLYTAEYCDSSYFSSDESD
Chain of rhTDO (recombinant human TDO) (P48775 whole entry): as above
T2 sequence (P14902 whole entry): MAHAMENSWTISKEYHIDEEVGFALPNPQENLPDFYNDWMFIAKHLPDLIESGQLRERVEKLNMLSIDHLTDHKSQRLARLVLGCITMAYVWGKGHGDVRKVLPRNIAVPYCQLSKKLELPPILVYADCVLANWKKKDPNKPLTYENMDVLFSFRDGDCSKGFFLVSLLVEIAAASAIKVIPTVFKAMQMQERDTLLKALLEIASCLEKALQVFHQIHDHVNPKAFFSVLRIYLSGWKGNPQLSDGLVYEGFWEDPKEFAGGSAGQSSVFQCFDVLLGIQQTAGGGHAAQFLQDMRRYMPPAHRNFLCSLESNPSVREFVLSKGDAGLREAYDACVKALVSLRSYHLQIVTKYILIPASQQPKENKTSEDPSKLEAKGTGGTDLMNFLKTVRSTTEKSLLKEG
Chain of rhIDO (recombinant human IDO) (P14902 whole entry): as above

Turning to `Fc1ccc(CN2CN=C(SCc3ccccc3CSC3=NCN(Cc4ccc(F)c(Cl)c4)CN3)NC2)cc1Cl` [Compound 145, 1,2-Bis(((5-(3-Chloro-4-fluorobenzyl)-1,4,5,6-tetrahydro-1,3,5-triazin-2-yl)thio)methyl)benzene], the remaining activity at 10 µM worked out at 12% in experiment [1], 18% in experiment [2], 40% in experiment [3] and 69% in experiment [4].
With `Fc1ccc(CSC2=NCN(Cc3ccc(F)c(Cl)c3)CN2)c(CSC2=NCN(Cc3ccc(F)c(Cl)c3)CN2)c1` [Compound 146, 6,6′-(((4-Fluoro-1,2-phenylene)bis(methylene))bis(sulfanediyl))bis(3-(3-chloro-4-fluorobenzyl)-1,2,3,4-tetrahydro-1,3,5-triazine)], the remaining activity at 10 µM in experiment [1] is 17%; in experiment [2] it was 16%; in experiment [3] it was 26%; in experiment [4] it was 54%.
As to `COc1ccc(CCN2CN=C(SCc3ccc(F)cc3CSC3=NCN(CCc4ccc(OC)cc4)CN3)NC2)cc1` [Compound 147, 6,6′-(((4-Fluoro-1,2-phenylene)bis(methylene))bis(sulfanediyl))bis(3-(4-methoxyphenethyl)-1,2,3,4-tetrahydro-1,3,5-triazine)], the remaining activity at 10 µM in experiment [1] worked out at 16%; in experiment [2], 16%; in experiment [3], 10%; in experiment [4], 32%.
Take `COc1ccc(CCN2CN=C(SCc3ccc(Br)cc3CSC3=NCN(CCc4ccc(OC)cc4)CN3)NC2)cc1` [Compound 148, 6,6′-(((4-Bromo-1,2-phenylene)bis(methylene))bis(sulfanediyl))bis(3-(4-methoxyphenethyl)-1,2,3,4-tetrahydro-1,3,5-triazine)]: the remaining activity at 10 µM in experiment [1] is 18%; in experiment [2], 7%; in experiment [3], 8%; in experiment [4] it was 13%.
As to `FC(F)(F)c1cccc(CCN2CN=C(SCc3ccc(Br)cc3CSC3=NCN(CCc4cccc(C(F)(F)F)c4)CN3)NC2)c1` [Compound 149, 6,6′-(((4-Bromo-1,2-phenylene)bis(methylene))bis(sulfanediyl))bis(3-(3-(trifluoromethyl)phenethyl)-1,2,3,4-tetrahydro-1,3,5-triazine)], the remaining activity at 10 µM in experiment [1] came to 17%; in experiment [2] it was 7%; in experiment [3], 11%; in experiment [4] it was 8%.
As to `Fc1ccc(CSC2=NCN(CCc3cccc(C(F)(F)F)c3)CN2)c(CSC2=NCN(CCc3cccc(C(F)(F)F)c3)CN2)c1` [Compound 150, 6,6′-(((4-Fluoro-1,2-phenylene)bis(methylene))bis(sulfanediyl))bis(3-(3-(trifluoromethyl)phenethyl)-1,2,3,4-tetrahydro-1,3,5-triazine)], the remaining activity at 10 µM in experiment [1] is 13%; in experiment [2], 15%; in experiment [3], 11%; in experiment [4], 23%.
Take `N=C(N)SCc1sc2ccccc2c1CSC(=N)N` [Compound 151, Benzo[b]thiophene-2,3-diylbis(methylene) dicarbamimidothioate dihydrobromide]: the remaining activity at 10 µM was 76% in experiment [1], 33% in experiment [2], 11% in experiment [3] and 13% in experiment [4].
Regarding `FC(F)(F)c1cccc(CCN2CN=C(SCc3cc(Cl)c(Cl)cc3CSC3=NCN(CCc4cccc(C(F)(F)F)c4)CN3)NC2)c1` [Compound 152, 6,6′-(((4,5-Dichloro-1,2-phenylene)bis(methylene))bis(sulfanediyl))bis(3-(3-(trifluoromethyl)phenethyl)-1,2,3,4-tetrahydro-1,3,5-triazine)], the remaining activity at 10 µM worked out at 6% in experiment [1], 9% in experiment [2], 7% in experiment [3] and 7% in experiment [4].
Turning to `COc1cccc(CCN2CN=C(SCc3cc(Cl)c(Cl)cc3CSC3=NCN(CCc4cccc(OC)c4)CN3)NC2)c1` [Compound 153, 6,6′-(((4,5-Dichloro-1,2-phenylene)bis(methylene))bis(sulfanediyl))bis(3-(3-methoxyphenethyl)-1,2,3,4-tetrahydro-1,3,5-triazine)], the remaining activity at 10 µM in experiment [1] worked out at 9%; in experiment [2] it was 12%; in experiment [3], 6%; in experiment [4], 8%.

Source of the values: US12209079B2 (GENERAL INCORPORATED ASSOCIATION PHARMA VALLEY PROJECT …, priority 2017, dated 2025).
